One data set deals with T1, UGT1A7 (Homo sapiens, UniProt Q9HAW7).
T1 sequence (Q9HAW7 26-530): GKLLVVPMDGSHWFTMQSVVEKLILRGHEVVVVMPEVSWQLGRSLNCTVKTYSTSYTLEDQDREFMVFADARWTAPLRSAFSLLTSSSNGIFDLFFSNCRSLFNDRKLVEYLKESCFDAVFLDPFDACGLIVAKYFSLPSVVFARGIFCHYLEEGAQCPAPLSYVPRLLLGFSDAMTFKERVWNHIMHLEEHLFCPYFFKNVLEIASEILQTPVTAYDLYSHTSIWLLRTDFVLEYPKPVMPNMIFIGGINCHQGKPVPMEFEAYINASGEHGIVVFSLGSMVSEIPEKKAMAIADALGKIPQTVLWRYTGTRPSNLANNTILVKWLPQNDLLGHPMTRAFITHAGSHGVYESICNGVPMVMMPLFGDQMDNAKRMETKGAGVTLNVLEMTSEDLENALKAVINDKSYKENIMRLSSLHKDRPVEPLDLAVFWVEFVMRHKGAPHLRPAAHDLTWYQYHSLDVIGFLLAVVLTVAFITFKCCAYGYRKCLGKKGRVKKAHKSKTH
The data set can be described thus: Inhibition of 4-MU glucuronidation by recombinant UGT1A7. To be noted: human, recombinant UGT1A7, pH 7.4, probe 4-MU.

A further data set has as its target T2, UGT1A9 (Homo sapiens, UniProt O60656).
T2 sequence (O60656 26-530): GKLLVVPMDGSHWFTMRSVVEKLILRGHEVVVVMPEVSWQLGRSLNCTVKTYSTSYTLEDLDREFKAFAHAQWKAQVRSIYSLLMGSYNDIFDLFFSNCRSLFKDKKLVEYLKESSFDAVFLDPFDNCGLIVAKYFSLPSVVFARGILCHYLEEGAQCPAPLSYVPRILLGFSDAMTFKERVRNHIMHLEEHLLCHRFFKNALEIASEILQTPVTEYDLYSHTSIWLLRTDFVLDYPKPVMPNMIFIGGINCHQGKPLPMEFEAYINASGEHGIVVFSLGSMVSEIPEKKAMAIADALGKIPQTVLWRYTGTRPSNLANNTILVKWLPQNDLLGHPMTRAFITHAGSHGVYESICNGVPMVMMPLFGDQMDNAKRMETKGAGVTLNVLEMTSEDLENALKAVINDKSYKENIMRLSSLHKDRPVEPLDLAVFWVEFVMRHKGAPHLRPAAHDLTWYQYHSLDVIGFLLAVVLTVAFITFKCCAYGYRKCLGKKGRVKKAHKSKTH
The data set can be described thus: in vitro. To be noted: recombinant UGT1A9, pH 7.4, probe 4-MU.

In another data set the target is T3, UGT1A1 (Homo sapiens, UniProt P22309).
T3 sequence (P22309 26-533): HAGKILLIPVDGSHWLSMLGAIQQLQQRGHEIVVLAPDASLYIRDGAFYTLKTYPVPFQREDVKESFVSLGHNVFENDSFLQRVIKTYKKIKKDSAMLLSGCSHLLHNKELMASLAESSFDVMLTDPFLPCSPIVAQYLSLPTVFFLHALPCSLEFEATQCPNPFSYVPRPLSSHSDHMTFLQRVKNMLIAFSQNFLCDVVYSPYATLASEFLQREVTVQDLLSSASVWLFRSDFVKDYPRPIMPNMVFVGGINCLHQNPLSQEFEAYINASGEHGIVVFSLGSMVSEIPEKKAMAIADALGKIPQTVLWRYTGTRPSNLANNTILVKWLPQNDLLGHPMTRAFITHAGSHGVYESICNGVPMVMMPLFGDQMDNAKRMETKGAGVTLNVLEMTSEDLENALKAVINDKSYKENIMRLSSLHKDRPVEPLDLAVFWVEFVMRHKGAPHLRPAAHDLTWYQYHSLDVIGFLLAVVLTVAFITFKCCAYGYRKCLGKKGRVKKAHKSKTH
The data set can be described thus: Inhibition of 4-MU glucuronidation by recombinant UGT1A1. The following applies: human, recombinant UGT1A1, pH 7.4, probe 4-MU.

Another data set deals with T4, UGT1A6 (Homo sapiens, UniProt P19224).
T4 construct: purchased BD Gentest (Woburn, MA); host or cells: baculovirus-infected insect cells
T4 sequence (P19224 27-532): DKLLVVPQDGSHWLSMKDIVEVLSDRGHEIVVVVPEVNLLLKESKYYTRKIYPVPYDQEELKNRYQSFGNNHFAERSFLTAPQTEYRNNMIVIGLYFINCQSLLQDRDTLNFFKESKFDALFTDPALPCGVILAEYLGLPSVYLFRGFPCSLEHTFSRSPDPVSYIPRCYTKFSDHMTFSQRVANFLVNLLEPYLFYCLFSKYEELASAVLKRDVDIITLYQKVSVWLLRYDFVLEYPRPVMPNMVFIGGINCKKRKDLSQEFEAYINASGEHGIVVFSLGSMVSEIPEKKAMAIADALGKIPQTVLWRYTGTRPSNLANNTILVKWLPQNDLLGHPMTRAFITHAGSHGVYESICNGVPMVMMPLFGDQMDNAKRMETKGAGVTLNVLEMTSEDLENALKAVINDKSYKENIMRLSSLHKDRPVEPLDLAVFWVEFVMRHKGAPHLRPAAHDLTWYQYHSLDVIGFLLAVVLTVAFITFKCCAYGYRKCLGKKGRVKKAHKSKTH
Kind of data set: Inhibition of 4-MU glucuronidation by recombinant UGT1A6. The data set is classed as in vitro ADME. To be noted: recombinant UGT1A6, pH 7.4, probe 4-MU, 100 μM inhibitor, 4-MU substrate, positive control diclofenac, read-out: Remaining activities (%) of UGT1A6.

The target in a further data set is T5, UGT1A10 (Homo sapiens, UniProt Q9HAW8).
T5 sequence (Q9HAW8 26-530): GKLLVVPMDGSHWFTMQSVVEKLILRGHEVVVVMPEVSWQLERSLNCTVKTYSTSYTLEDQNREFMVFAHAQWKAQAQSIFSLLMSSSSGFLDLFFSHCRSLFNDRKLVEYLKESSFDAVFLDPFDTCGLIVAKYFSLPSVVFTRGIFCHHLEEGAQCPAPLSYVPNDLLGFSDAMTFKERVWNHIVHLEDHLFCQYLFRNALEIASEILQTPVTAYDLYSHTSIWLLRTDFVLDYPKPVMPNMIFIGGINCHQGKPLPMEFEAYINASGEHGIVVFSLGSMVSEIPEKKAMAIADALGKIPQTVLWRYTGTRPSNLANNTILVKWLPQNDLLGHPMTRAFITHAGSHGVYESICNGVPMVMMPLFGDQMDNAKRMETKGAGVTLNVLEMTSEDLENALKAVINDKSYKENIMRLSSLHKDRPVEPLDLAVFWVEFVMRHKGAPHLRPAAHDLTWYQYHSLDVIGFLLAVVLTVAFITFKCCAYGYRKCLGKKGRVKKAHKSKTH
Kind of data set: Inhibition of 4-MU glucuronidation by recombinant UGT1A10. To be noted: recombinant UGT1A10, pH 7.4, probe 4-MU.

The target of another data set is T6, UGT1A8 (Homo sapiens, UniProt Q9HAW9).
T6 sequence (Q9HAW9 26-530): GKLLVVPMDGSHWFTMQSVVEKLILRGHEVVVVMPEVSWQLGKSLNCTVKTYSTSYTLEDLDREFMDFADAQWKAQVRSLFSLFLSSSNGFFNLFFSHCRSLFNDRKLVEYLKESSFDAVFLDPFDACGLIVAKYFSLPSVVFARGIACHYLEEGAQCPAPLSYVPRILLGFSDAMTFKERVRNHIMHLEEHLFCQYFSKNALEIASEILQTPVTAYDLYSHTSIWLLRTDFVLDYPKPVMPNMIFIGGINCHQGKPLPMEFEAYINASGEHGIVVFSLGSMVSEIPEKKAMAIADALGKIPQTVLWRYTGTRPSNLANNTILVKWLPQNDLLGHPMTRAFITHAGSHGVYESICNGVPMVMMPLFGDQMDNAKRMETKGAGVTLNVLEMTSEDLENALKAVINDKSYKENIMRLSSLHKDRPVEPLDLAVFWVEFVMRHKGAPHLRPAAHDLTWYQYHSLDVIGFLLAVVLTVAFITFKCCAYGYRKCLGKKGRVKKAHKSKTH
The data set can be described thus: Inhibition of 4-MU glucuronidation by recombinant UGT1A8. The following applies: recombinant UGT1A8, pH 7.4, probe 4-MU.

A further data set deals with T7, UGT1A4 (Homo sapiens, UniProt P22310).
T7 sequence (P22310 29-534): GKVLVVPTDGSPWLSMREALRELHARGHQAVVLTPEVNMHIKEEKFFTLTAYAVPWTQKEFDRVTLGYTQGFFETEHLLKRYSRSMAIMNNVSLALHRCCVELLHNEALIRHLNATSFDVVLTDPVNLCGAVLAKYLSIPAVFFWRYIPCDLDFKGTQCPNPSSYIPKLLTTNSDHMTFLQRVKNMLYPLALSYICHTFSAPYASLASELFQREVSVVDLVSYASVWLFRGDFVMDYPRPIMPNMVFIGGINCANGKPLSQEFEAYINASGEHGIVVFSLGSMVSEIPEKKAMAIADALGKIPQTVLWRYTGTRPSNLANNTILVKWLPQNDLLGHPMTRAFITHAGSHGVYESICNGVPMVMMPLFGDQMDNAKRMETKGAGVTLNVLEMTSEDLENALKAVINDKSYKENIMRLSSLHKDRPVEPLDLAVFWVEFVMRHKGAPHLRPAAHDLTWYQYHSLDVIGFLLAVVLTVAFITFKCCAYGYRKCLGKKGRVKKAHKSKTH
Kind of data set: Inhibition of TFP glucuronidation by recombinant UGT1A4. The following applies: 100 μM inhibitor; TFP substrate; positive control hecogenin.

Three compounds from paper PMC4672351, “Drug-Drug Interaction Potentials of Tyrosine Kinase Inhibitors via Inhibition of UDP-Glucuronosyltransferases” (Scientific Reports, 2015) can be followed below.

In the case of `O=C(O)Cc1ccccc1Nc1c(Cl)cccc1Cl` [diclofenac], the figures for the activity at 30 min, 100 µM at UGT1A7, at UGT1A9 and at UGT1A6 were 25.6 ± 11.2%, 15.2 ± 1.2% and 28.2 ± 10%, respectively. At UGT1A1, the activity at 120 min, 100 µM was 37 ± 2.1%.

For `CCCCC1C(=O)N(c2ccccc2)N(c2ccccc2)C1=O` [phenylbutazone], the activity at 120 min, 100 µM on UGT1A10 is 37.8 ± 8%. On UGT1A8, the activity at 30 min, 100 µM amounted to 40.2 ± 5.3%.

Turning to hecogenin, the “Remaining activities (%) of UGT1A4” value on UGT1A4 came out at 20.3 ± 6.6%.
